We go through eight molecules from patent publication US20250222146A1, “Radiopharmaceuticals Targeting Somatostatin Receptor 2 and Uses Thereof” (RayzeBio, Inc., priority 2023, published 2025).

Read-outs that look alike come from different tables or passages of the source. Numbered stars: 1 amine (or outer) side, 2 acyl side, 3 side chain; on linkers, the order of the positions; unused ones are H or OH. Square brackets hold non-standard residues; d marks the D form. Peptide text beside a SMILES is read from it. * marks the point of attachment. DOTA(Lu)NH(CH2)6NHCOCH2 = O=C(CN1CCN2CCN3CCN(CC1)CC(=O)[O][Lu]([O]C(=O)C2)[O]C(=O)C3)NCCCCCCNC(=O)C*; X24 = O=C1CN2CCN3CCN(CC(=O)N4CC(CC(=O)*)C4)CCN(CC2)CC(=O)[O][Lu]([O]1)[O]C(=O)C3; DOTA(Lu) = O=C1CN2CCN3CCN(CC(=O)*)CCN(CC2)CC(=O)[O][Lu]([O]1)[O]C(=O)C3; Ala(piperidin-4-yl) = O=C([C@H](CC1CCN([*:3])CC1)N[*:1])[*:2]; dTrp(βS-Me) = C[C@@H](c1c[nH]c2ccccc12)[C@@H](N)C(=O)O; X16 = NC1CCC(C[C@H](N[*:1])C(=O)[*:2])CC1; NMehCys = CN[C@@H](CCS)C(=O)O; Cba = N[C@@H](CC1CCC1)C(=O)O; NMeK = CN[C@@H](CCCCN)C(=O)O; NMeC = CN[C@@H](CS)C(=O)O; Ethyl(2-NH2) = NCC* Some results are limits rather than exact numbers.

The target in the assay is SSTR2 (Homo sapiens, UniProt P30874). The assay is described as follows: SSTR binding affinity by radioligand binding competition assay ([125I]-Tyr11-Somatostatin, membrane extracts). As to conditions: radioligand competition, [125I]-Tyr11-Somatostatin 0.1 nM, membrane extracts, Ki from IC50 by Cheng Prusoff. A general note: Displacement assays read how much labelled ligand stays bound in the presence of the test substance.
Sequence of SSTR2 (P30874 whole entry): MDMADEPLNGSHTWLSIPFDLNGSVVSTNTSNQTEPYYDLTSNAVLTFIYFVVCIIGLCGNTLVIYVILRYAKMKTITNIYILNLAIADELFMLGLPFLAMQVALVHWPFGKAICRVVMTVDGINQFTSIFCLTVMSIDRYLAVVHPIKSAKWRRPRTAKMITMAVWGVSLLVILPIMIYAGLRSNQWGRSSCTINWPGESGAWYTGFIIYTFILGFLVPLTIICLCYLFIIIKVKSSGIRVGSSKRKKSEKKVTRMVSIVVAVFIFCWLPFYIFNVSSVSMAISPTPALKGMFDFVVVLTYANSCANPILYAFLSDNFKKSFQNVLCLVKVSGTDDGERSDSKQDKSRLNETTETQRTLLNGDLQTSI

Consider `CCN(C)CC(=O)[O][Lu]1[O]C(=O)CN(C)CCN(CCN(CC)CC(=O)NCCCCCCNC(=O)CCC[C@H]2C(=O)N[C@@H](CC3=CC=C(O)C=C3)C(=O)N[C@H](CC3=CNC4=C3C=CC=C4)C(=O)N[C@@H](CCCCN)C(=O)N[C@@H](C(C)C)C(=O)N[C@@H](CC3=CC=CC=C3)C(=O)N2C)CC(=O)[O]1` [RB-0002680] (HELM PEPTIDE1{F.[CN([C@@H](CCCC(=O)[*:3])C(=O)[*:2])[*:1]].Y.[dW].K.V}|CHEM1{[CCN(C)CC(=O)[O][Lu]1[O]C(=O)CN(C)CCN(CCN(CC)CC(=O)NCCCCCCN[*:1])CC(=O)[O]1]}$PEPTIDE1,CHEM1,2:R3-1:R1|PEPTIDE1,PEPTIDE1,1:R1-6:R2$$$V2.0), for which the Ki (read-out: SSTR2 Ki) fell in the range of 1 to 3.33 nM. Still for that read-out and setting: as for `CN1C(=O)[C@H](Cc2ccccc2)NC(=O)[C@H](CC2CCC2)NC(=O)[C@H](CCCCN)NC(=O)[C@@H](Cc2c[nH]c3ccccc23)NC(=O)[C@H](Cc2ccc(O)cc2)NC(=O)[C@@H]1CCSCC(=O)NCCCCCCNC(=O)CN1CCN2CCN3CCN(CC1)CC(=O)[O][Lu]([O]C(=O)C2)[O]C(=O)C3` [RB-0004621] (cyclo([Cba]F[NMehCys](DOTA(Lu)NH(CH2)6NHCOCH2)Y[dW]K)), the figure is less than 1 nM; as for `C[C@@H](O)[C@@H]1NC(=O)[C@H](COCCN)NC(=O)[C@@H](Cc2c[nH]c3ccccc23)NC(=O)[C@H](Cc2ccc(O)cc2)NC(=O)[C@H](CCSCC(=O)NCCCCCCNC(=O)CN2CCN3CCN4CCN(CC2)CC(=O)[O][Lu]([O]C(=O)C3)[O]C(=O)C4)N(C)C(=O)[C@H](Cc2ccccc2)NC1=O` [RB-0005899] (cyclo(F[NMehCys](DOTA(Lu)NH(CH2)6NHCOCH2)Y[dW]S(Ethyl(2-NH2))T)), less than 1 nM.

In the case of `C[C@@H](O)[C@@H]1NC(=O)[C@H](CCCCN)NC(=O)[C@@H](Cc2c[nH]c3ccccc23)NC(=O)[C@H](Cc2ccc(O)cc2)NC(=O)[C@H](C2CCN(C(=O)CCCCCNC(=O)CN3CCN4CCN5CCN(CC3)CC(=O)[O][Lu]([O]C(=O)C4)[O]C(=O)C5)CC2)N(C)C(=O)[C@H](Cc2ccccc2)NC1=O` [RB-0005852], for the setting “read-out: SSTR2 Ki”, the inhibition constant Ki was 33.3 to 100 nM.

`C[C@@H](O)[C@@H]1NC(=O)[C@H](CC2CCC(N)CC2)NC(=O)[C@@H]([C@@H](C)c2c[nH]c3ccccc23)NC(=O)[C@H](Cc2ccc(O)cc2)NC(=O)[C@H](CCCCNC(=O)CN2CCN3CCN4CCN(CC2)CC(=O)[O][Lu]([O]C(=O)C3)[O]C(=O)C4)N(C)C(=O)[C@H](Cc2ccccc2)NC1=O` (some centres unmarked) [RB-0006387] (cyclo(F[NMeK](DOTA(Lu))Y[dTrp(βS-Me)][X16]T)): the inhibition constant Ki (read-out: SSTR2 Ki) was less than 1 nM. On to `C[C@@H](O)[C@@H]1NC(=O)[C@H](CCCCN)NC(=O)[C@@H](Cc2c[nH]c3ccccc23)NC(=O)[C@H](Cc2ccc(O)cc2)NC(=O)[C@H](CCCCNC(=O)[C@H]2CC[C@H](CNC(=O)CN3CCN4CCN5CCN(CC3)CC(=O)[O][Lu]([O]C(=O)C4)[O]C(=O)C5)CC2)N(C)C(=O)[C@H](Cc2ccccc2)NC1=O` [RB-0003246], for which the Ki (SSTR2 Ki) was 1 to 3.33 nM. On the same count and under the same terms, in the case of `CC(C)[C@@H]1NC(=O)[C@H](CCCCN)NC(=O)[C@@H](Cc2c[nH]c3ccccc23)NC(=O)[C@H](Cc2ccc(O)cc2)NC(=O)[C@H](CSCC(=O)NCCCCCCNC(=O)CN2CCN3CCN4CCN(CC2)CC(=O)[O][Lu]([O]C(=O)C3)[O]C(=O)C4)N(C)C(=O)[C@H](Cc2ccccc2)NC1=O` [RB-0002674] (cyclo(F[NMeC](DOTA(Lu)NH(CH2)6NHCOCH2)Y[dW]KV)) it was 1 to 3.33 nM. For the molecule `C[C@@H](O)[C@@H]1NC(=O)[C@H](CC2CCNCC2)NC(=O)[C@@H]([C@@H](C)c2c[nH]c3ccccc23)NC(=O)[C@H](Cc2ccc(O)cc2)NC(=O)[C@H](CCCCNC(=O)CC2CN(C(=O)CN3CCN4CCN5CCN(CC3)CC(=O)[O][Lu]([O]C(=O)C5)[O]C(=O)C4)C2)N(C)C(=O)[C@H](Cc2ccccc2)NC1=O` [RB-0006461] (cyclo(F[NMeK](X24)Y[dTrp(βS-Me)][Ala(piperidin-4-yl)]T)), under “read-out: SSTR2 Ki”, the inhibitory constant (Ki) is 3.33 to 10 nM.

Broadly, the Ki is a dissociation constant, usually derived from enzyme kinetics or from competition with a known ligand.
